Values joined by “and” are separate entries in the source; they are usually repeats but may differ in a detail not shown here. Equal values may be shown once. Some results are limits rather than exact numbers.

Here are results for two compounds from publication PMC12152147, “DDB1 engagement defines the selectivity of S656 analogs for cyclin K degradation over CDK inhibition” (EMBO Reports, 2025).

One series deals with tumor growth. More on the design: method as in Dieter et al. (PMID34289372). The note with it: orally in mice, 20 mg/kg, 5 days per week; ref Dieter et al. (PMID34289372); cited from earlier work.
In the next series the test system is OCI-AML5 cells. The experiment in a line: Cell cycle profile (Hoechst 33342 flow cytometry). The format is cell-based, H. sapiens. The note with it: 24 h. The method, then: For cell cycle experiments, 500,000 cells in exponential growth phase were incubated in pre-warmed media containing 10 μg/mL Hoechst 33342 during 45 min in incubator (37 °C in 5% CO2). After wash, cells were resuspended in cold media and recorded on BD FACSCelesta cytometer at low flow rate and analyzed with FlowJo v10 (Tree Star).

Another series deals with primary AML specimens. Put plainly: Discovery screen: 6-day single-dose (1 μM) viability, CellTiterGlo. As to conditions: 6 days. It is filed as cell-based, human. The source says:
As recently described, our group conducted a high-throughput screening (HTS) assay assessing the response of 56 primary AML specimens to a library of 10,000 compounds (Moison et al, [2024]). This diverse small molecule library encompassed compounds with a wide range of structural diversity (Bristol-Myers Squibb), including clinical-grade compounds. Primary AML specimens representing the biological diversity of the disease, along with normal hematopoietic cells (CD34^+ cord blood cells), were exposed to a 6-day single-dose compound treatment (1 μM) and viability was assessed using the CellTiterGlow luminescent assay (Appendix Fig. S1A–C). A profile of inhibition—or fingerprint—was generated for each small molecule across the 56 primary AML specimens tested. […] Among these candidates, 12 were validated in cell lines and primary specimens and selected based on their chemotypes. […] Of note, highly sensitive AML specimens spanned various AML subgroups, underscoring the broad activity of S656 across genetically diverse AMLs (Fig. 1D).
Freshly thawed primary AML specimens were used for chemical screens. […] Cell viability was evaluated after 6 days in culture using the CellTiterGlo assay according to the manufacturer’s instruction. Percentage of inhibition for dose response curves was calculated as 100 – (100 × (mean luminescence [compound]/mean luminescence [DMSO])). […]

In the case of `Cn1cc(-n2cnc3c(NCc4nc5cc(Cl)c(Cl)cc5[nH]4)nc(N4CCOCC4)nc32)cn1` [SR4835], in the series on tumor growth, the tolerability in animals entry was “well tolerated” and the “tumor growth in vivo” value is “effectively inhibited tumor growth”.
On to `CN(C)c1ccc(CC(=O)Nc2ncc(SCc3cccnc3)s2)cc1` [S656], for which, in the series on OCI-AML5 cells (S656 1uM), the “percentage of cells in G1” value is 50.8% and 63.1% and 58.6%; the “percentage of cells in G2/M” value is 26.6% and 23.9% and 22.5%; the “percentage of cells in S” value is 21.5% and 12.1% and 18.1%. Moreover, in the series with OCI-AML5 cells (S656 3uM), the “percentage of cells in G1” value is 69.1% and 60.5% and 65.7%; the “percentage of cells in G2/M” value is 17.7% and 29.1% and 24.3%; the “percentage of cells in S” value was 12% and 9.62% and 8.06%. For the same compound, in the series with primary AML specimens (Homo sapiens, 144 h, 1 μM, in 10 out of 56 primary AML specimens, read-out: growth inhibition), the inhibition (commonly the percentage by which the read-out fell short of the control) at 1 µM was above 70%. The “% inhibition S656 at 1uM” value in the series on primary AML specimens (discovery screen, one primary AML specimen per row (Patient ID in c0)) was found to be 0.00%.
